We go through one compound from patent EP4792811A1, “S1PR4 REGULATOR COMPOUND FOR MUSCLE DISEASE TREATMENT AND APPLICATION THEREOF” (Shengyuan Zetong (Shanghai) Pharmaceutical Co., Ltd, priority 2023, dated 2025).

In one data set the target is T1, S1PR4 (Homo sapiens, UniProt O95977).
T1 construct: expressed in transfected cells; host or cells: 293T
T1 sequence (O95977 1-384): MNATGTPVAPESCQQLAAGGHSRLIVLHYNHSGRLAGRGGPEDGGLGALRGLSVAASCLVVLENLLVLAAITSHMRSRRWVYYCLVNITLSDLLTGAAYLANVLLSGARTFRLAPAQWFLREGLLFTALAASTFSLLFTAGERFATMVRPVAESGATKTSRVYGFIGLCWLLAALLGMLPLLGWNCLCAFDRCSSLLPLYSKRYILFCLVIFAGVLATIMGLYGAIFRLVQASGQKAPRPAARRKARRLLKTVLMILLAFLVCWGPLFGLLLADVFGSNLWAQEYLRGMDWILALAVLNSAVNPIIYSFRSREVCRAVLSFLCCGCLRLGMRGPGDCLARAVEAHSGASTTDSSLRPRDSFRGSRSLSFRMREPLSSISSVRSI
Nature of the data set: S1PR4 internalization function test in S1PR4-293T cells. As to conditions: 1 µM, 37 °C, 1.5 hours; detected immediately, or at 5 hours or 20 hours after treatment. It is filed as cell-based. Here is the method: Therefore, the recovery degree of S1PR4 after internalization caused by Compound 30 was evaluated, and the recovery effect following receptor internalization caused by Compound 30 was assessed in cells with high S1PR4 expression.

Data set [1] has as its system S1PR4-R82C/NDUFA10-R217W double-mutant mice. Nature of the data set: In vivo efficacy in S1PR4-R82C/NDUFA10-R217W double-mutant muscular dystrophy mice. The conditions noted are these: 1 mg/kg intragastric once daily. Here is the method:
Experimental Animals: A total of 34 S1PR4-R82C/NDUFA10-R217W mice were divided into 6 groups as shown below.
Intragastric administration was initiated on Day 0, and body weight was measured daily during the experiment to adjust the drug dosage. Grip strength was measured at the beginning and end of the experiment to observe motor changes in mice. Changes in the limb grip strength, serum creatine kinase content, and muscle fibrosis/inflammation in mice were detected as indicators for evaluating drug efficacy.
(§1) The mouse was placed horizontally on the grip test board. The mouse's tail was held and pulled gently in the opposite direction without using excessive force. The tail was gradually pulled until the mouse released the grip force sensor. The maximum value recorded by the grip force sensor is the grip strength. The test was repeated for 3 times and the average value was taken.
(§2) After the completion of administration, blood was collected via the orbital sinus, allowed to stand for 30 minutes, centrifuged at 3000 rpm at 4°C for 15 minutes, and serum was extracted, stored frozen at -20°C, and detected in accordance with the kit instructions.
(§3) After the experiment, the tibialis anterior, extensor digitorum longus, and diaphragm of the mice were harvested, fixed, sectioned, and subjected to HE staining and Sirius Red staining to observe the degree of muscle fibrosis. The slice was subjected to immunofluorescence staining with F4/80 to observe the level of muscle inflammation.

The next data set addresses T2, hS1P4-R-79C (Homo sapiens, UniProt O95977, R79C).
T2 construct: expressed in transfected cells; host or cells: CHO
T2 sequence (O95977 1-384 R79C): T1 sequence (O95977 1-384) with R79C
Nature of the data set: Tango β-arrestin recruitment assay, Tango-hS1P4-R-79C-CHO. It is filed as cell-based. The conditions noted are these: final concentration 45 µM, 9 serial dilutions at 5-fold intervals; 20 h drug treatment; luciferase readout. An excerpt: (§4) The Tango assay detects ligand-dependent GPCR activity through the interaction between β-arrestin and GPCRs. […] The NTEV fragment and the tetracycline transactivator (tTA), an artificial transcription factor, are fused at the C-terminus of the GPCR, while the CTEV fragment is fused to human β-arrestin 2. To enhance the stability of the interaction between GPCR and β-arrestin, a short sequence from the C-terminus of the human arginine vasopressin receptor 2 (V2 tail) is inserted between the GPCR and NTEV. The V2 tail contains multiple GRK phosphorylation sites, which strengthen β-arrestin binding upon phosphorylation. The CTEV fragment carries the stabile point mutation S219P and is truncated at residue 221 to remove the autoinhibitory C-terminal tail. Meanwhile, β-arrestin 2 is truncated to lack the entire C-terminal tail (residues 383-410 deleted). This truncation confers robust stimulus-dependent receptor desensitization, thereby improving detection sensitivity compared with wild-type β-arrestin 2. The UAS reporter construct consists of upstream activating sequence (UAS) elements, a minimal CMV promoter, and a tTA-dependent luciferase reporter gene. Therefore, constructing Tango cells requires the co-transfection of the above three plasmids into host cells. Upon GPCR activation and β-arrestin recruitment, the TEV enzyme at the β-arrestin terminus cleaves tTA from the GPCR C-terminus. The released tTA initiates tTA-dependent luciferase transcription, and compound activity is ultimately determined by measuring luminescence intensity.
(§5) • 1) Tango cell line from was digested from the culture dish respectively. After cell counting, the cells were plated at a density of 10,000 cells per well with […] into a white opaque 96-well plate (add 60 µL D'Hanks to the surrounding wells), and incubated overnight (20 h) in a 5% CO2 incubator at 37°C. The cell density will reach approximately 90% the next day. • 2) After 20 h, 30 µL of serially diluted compound solution was added to each well. The control group was supplemented with 30 µL F12K complete medium. Each group had three replicate wells. • 3) Samples were collected after 20 h of drug treatment.
(§6) (All compounds were tested at a final concentration of 45 µM, with 9 serial dilutions at 5-fold intervals. 1 µM BAF-312 was used as the positive control for S1PR1, and 25 µM BAF-312 was used as the positive control for S1PR4.)
In general terms: Activated receptors often draw arrestin, which recruitment assays turn into a signal.

A further data set deals with T3, hS1P1 (Homo sapiens, UniProt P21453).
T3 construct: expressed in transfected cells; host or cells: CHO-K1
T3 sequence (P21453 whole entry): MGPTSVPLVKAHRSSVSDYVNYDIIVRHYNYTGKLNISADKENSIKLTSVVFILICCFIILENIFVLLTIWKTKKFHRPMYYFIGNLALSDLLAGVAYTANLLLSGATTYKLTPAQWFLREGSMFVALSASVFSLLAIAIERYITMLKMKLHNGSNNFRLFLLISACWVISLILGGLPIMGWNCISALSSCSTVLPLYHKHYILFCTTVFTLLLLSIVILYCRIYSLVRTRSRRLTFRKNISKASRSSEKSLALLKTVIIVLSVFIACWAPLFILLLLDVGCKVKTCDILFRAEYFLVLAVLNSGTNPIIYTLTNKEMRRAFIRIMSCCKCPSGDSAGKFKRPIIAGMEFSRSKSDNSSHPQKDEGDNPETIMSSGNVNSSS
Nature of the data set: Tango β-arrestin recruitment assay, Tango-hS1P1-CHO. It is filed as cell-based. As to conditions: final concentration 45 µM, 9 serial dilutions at 5-fold intervals; 20 h drug treatment; luciferase readout.
From the text: as §4, §5, §6
^a β-arrestin recruitment activity based on Tango-S1PR1-CHO-K1 and Tango-S1PR4-CHO-K1 cells, expressed as mean EC50 values ± SD. ^b FLIPR assays were performed using S1PR2-CHO and S1PR5-CHO cell lines, expressed as mean EC50 values ± SD. ^c β-arrestin recruitment activity based on PathHunter CHO-K1-S1PR3 cells, expressed as mean EC50 values ± SD. Data are the mean of at least two independent determinations, reported as mean ± SD (standard deviation).

Data set [2] deals with Duchenne muscular dystrophy model mice. Nature of the data set: In vivo pharmacodynamic test in Duchenne muscular dystrophy model mice (Compound 30). As to conditions: 1 mg/kg intragastric once daily. Here is the method:
Experimental Animals: A total of 35 Duchenne muscular dystrophy model mice were divided into 6 groups as shown below.
Intragastric administration was initiated from Day 0. Body weight was measured daily during the experiment to adjust the drug dosage. Grip strength tests were performed every 2 days to observe changes in the mice's grip strength until the experiment concluded on Day 21. Changes in the limb grip strength, serum creatine kinase content, and muscle fibrosis/inflammation in the mice were detected as indicators for evaluating drug efficacy.
as §1, §2, §3

Each structure is given as a SMILES string. Residue numbers refer to the chain shown, from its start.

With `CCc1cc(/C(C)=N/OCc2ccc(C3CCCCC3)c(C(F)(F)F)c2)ccc1CN1CC(C(=O)O)C1` [BAF312, reference compound], on S1PR4, the “S1PR4 internalization (expression of S1PR4 receptor on the cell surface)” value was “cannot induce S1PR4 internalization”. The “collagen deposition (collagen area ratio)” value is listed as “significantly reduced collagen deposition” in data set [1] (after administration) and “no difference” in data set [2]. The “serum creatine kinase level” value is “significantly reduced” in data set [1] (after treatment) and “no such effect” in data set [2] (after treatment). The “body weight gain trend” value in data set [1] (compared with the model group) was “no difference”. Moreover, the EC50 on hS1P4-R-79C was determined as 157 nM; on hS1P1, 1.04 nM. Moreover, in data set [2], the “macrophage content (F4/80 immunofluorescence, muscle inflammation)” value is on record as “no improvement”. Further, in data set [2], the “number of centrally nucleated fibers (HE staining)” value is “significantly reduced”. The “body weight growth trend” value in data set [2] (compared with the model group) is “no difference”.

One may read the EC50 as the concentration at which the effect is half-maximal. Lower therefore signals greater potency.
